Measurements from patent publication US20100075907A1, “NEUROMEDIN U RECEPTOR AGONISTS AND USES THEREOF” (priority 2006, published 2010).
Each block holds one molecule with its values, some of them ahead of it. Starred links: 1 amine or outer side, 2 acyl side, 3 side chain; linkers in the order of their positions; H or OH if unused. Non-standard residues stand in square brackets, D forms with d. Residues, ends and D or L forms follow the SMILES beside them. No end group written: not given here. *: point of attachment. X2 = CCN1C(=O)CC(SC[C@H](NC(C)=O)C(=O)NCCCOCCOCCOCCCN*)C1=O; Succinimide(1-Et,3-yl) = CCN1C(=O)CC(*)C1=O; Palmitoyl = CCCCCCCCCCCCCCCC(=O)*; Suc = O=C(CCC(=O)[*:2])[*:1]

Columns and labels:
Mouse NMUR1-CTG = biological target: T1, Mouse NMUR1-CTG (Mus musculus, UniProt O55040); experiment: FLIPR calcium mobilization assay, mouse NMUR1-CTG; assay type: cell-based; set-up: expressed in transfected cells; host or cells: FLP-In CHO or HEK-293 FLP-In cells (pcDNA5); conditions: for EC50: FLIPR
T1 sequence (O55040 1-428): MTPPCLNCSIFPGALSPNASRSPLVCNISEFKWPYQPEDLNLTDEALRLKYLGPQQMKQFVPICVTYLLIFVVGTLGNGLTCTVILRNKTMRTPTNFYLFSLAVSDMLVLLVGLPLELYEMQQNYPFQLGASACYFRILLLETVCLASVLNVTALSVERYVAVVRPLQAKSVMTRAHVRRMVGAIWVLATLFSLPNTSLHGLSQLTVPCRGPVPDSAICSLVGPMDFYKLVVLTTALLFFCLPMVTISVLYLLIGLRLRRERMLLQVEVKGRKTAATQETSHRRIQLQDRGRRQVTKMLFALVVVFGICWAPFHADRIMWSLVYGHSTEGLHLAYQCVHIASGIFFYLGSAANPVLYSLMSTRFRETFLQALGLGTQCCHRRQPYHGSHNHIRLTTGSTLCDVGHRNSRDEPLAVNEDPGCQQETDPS
Text: (§1) Human, mouse or rat cDNAs encoding NMUR1 or NMUR2 (as described in Howard et al. Nature 406: 70-74 (2000) were subcloned in pcDNA5 (Invitrogen) and transfected into FLP-In CHO cells and HEK-293 FLP-In cells purchased from Invitrogen (Carlsbad, Calif.) using lipofectamine (Invitrogen). The Flp-In system allows integration and expression of a particular gene of interest at a specific genomic location utilizing the Flp recombinase from yeast. The transfected cells were selected by growth in medium containing 200 μg/mL hygromycin (Invitrogen). Populations were frozen at early passage numbers, and these stocks were used for further studies. Stable clones that expressed the mRNAs were identified functionally by FLIPR as well as by RT-PCR. […] Two different rodent NMUR1 cell lines were thus generated: one with the codon as predicted from the genomic databases and another cell line with an engineered methionine (ATG) as the start codon. Additionally, stable cell lines expressing the human receptors were generated in HEK-293/aeq17 cells which stably express the aequorin gene under the CMV promoter. The human NMUR2 cDNA was cloned into pcDNA3.1 and human NMUR1 was subcloned into pIRES-puro (Clontech, Mountain View, Calif.), after transfection cells were selected in media containing G418 and either hygromycin (NMUR2) or puromycin (NMUR1).
(§2) The NMU receptors signal primarily through Gαq/11 proteins; therefore calcium mobilization assays can be utilized for functional activity.
(§3) Stable cell lines expressing human and or rodent NMUR1 or human NMUR2 receptors were plated at a density of 12,000 cells per well overnight on poly-lysine coated 384-well black-walled plates. The following day, the media was removed from the plates and the cells were subsequently loaded with Fluo-3 (Molecular Probes), a calcium sensitive dye, diluted in FLIPR buffer (1× Hank's buffered saline containing 20 mM HEPES, 0.1% BSA, 2.5 mM probenecid (Sigma) and 1.6 mM TR40). All reagents are from Invitrogen unless otherwise noted. Peptide stocks were resuspended in DMSO at a stock concentration of 2 mM and diluted in FLIPR buffer on the day of the experiment to a 4 μM working stock solution.
(§4) After a 90 minute incubation at room-temperature, cell plates were loaded onto a FLIPR (Molecular Devices) to monitor cellular fluorescence (excitation=488 nm; emission=540 nm) before and after compound/peptide addition. Eight to twelve point dose responses were tested on NMUR-expressing cell lines using FLIPR with 1 μM peptide as the highest dose. The response after peptide addition was taken as the maximum fluorescence units minus the fluorescence immediately prior to stimulation for each well. EC50 values were calculated using GraphPad Prism (San Diego, Calif.) software.
(§5) In vitro responses of Neuromedin U receptor agonists (NMU1 to NMU25) in the FLIPR assay for human (Table 3), mouse (Table 4) and rat (Table 5) NMUR1 and NMUR2. EC50s are reported in nM values. Percent activity refers to the maximum response at 1 μM compared to the hNMU-25 response at the same concentration. NT=not tested.

hNMUR2 = hNMUR2 (Homo sapiens, UniProt Q9GZQ4); experiment: FLIPR calcium mobilization assay, human NMUR2; assay type: cell-based; set-up: expressed in transfected cells; host or cells: FLP-In CHO or HEK-293 FLP-In cells (pcDNA5); HEK-293/aeq17 lines (pcDNA3.1) were also made; conditions: for EC50: FLIPR
Text: as §1, §2, §3, §4, §5

[1] = maximum response at 1 μM compared to hNMU-25, mouse NMUR1-CTG
[2] = maximum response at 1 μM compared to hNMU-25, human NMUR2

Sequence of hNMUR2 (Q9GZQ4 whole entry): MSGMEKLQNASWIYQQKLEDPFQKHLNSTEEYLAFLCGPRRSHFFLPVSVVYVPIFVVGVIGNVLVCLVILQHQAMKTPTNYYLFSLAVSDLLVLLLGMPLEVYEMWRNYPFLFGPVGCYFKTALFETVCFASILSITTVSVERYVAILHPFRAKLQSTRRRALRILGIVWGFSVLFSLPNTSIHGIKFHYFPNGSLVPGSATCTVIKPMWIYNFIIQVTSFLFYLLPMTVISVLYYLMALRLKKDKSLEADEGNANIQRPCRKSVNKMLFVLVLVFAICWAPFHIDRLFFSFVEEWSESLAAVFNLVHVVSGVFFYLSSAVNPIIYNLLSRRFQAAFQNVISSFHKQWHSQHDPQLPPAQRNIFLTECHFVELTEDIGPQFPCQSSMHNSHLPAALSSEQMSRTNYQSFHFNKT

Molecule: CCN1C(=O)CC(SC[C@H](NC(C)=O)C(=O)N[C@@H](Cc2ccccc2)C(=O)N[C@@H](CCCNC(=N)N)C(=O)N[C@H](C(=O)N[C@@H](CC(=O)O)C(=O)N[C@@H](CCC(=O)O)C(=O)N[C@@H](CCC(=O)O)C(=O)N[C@@H](Cc2ccccc2)C(=O)N[C@@H](CCC(N)=O)C(=O)N[C@@H](CO)C(=O)N2CCC[C@H]2C(=O)N[C@@H](Cc2ccccc2)C(=O)N[C@@H](C)C(=O)N[C@@H](CO)C(=O)N[C@@H](CCC(N)=O)C(=O)N[C@@H](CO)C(=O)N[C@@H](CCCNC(=N)N)C(=O)NCC(=O)N[C@@H](Cc2ccc(O)cc2)C(=O)N[C@@H](Cc2ccccc2)C(=O)N[C@H](C)C(=O)N[C@@H](Cc2c[nH]c3ccccc23)C(=O)N[C@@H](CCCNC(=N)N)C(=O)N2CCC[C@H]2C(=O)N[C@@H](CCCNC(=N)N)C(=O)N[C@@H](CC(N)=O)C(N)=O)C(C)C)C1=O (stereo partly drawn) [NMU13] (Ac-C(Succinimide(1-Et,3-yl))FRVDEEFQSPFASQSRGYF[dA]WRPRN-NH2)
EC50 (Mouse NMUR1-CTG; mouse NMUR1-CTG): 141 nM
IC50 (Mouse NMUR1-CTG; functional data, mouse R1-CTG): 14 nM
% Activity (Mouse NMUR1-CTG; functional, mouse R1-CTG, relative to native hNMU responses): 88%
% Activity (Mouse NMUR1-CTG; [1]): 73.6%
EC50 (hNMUR2; human NMUR2): > 1000 nM
% Activity (hNMUR2; functional, human R2, relative to native hNMU responses): 0%
% Activity (hNMUR2; [2]): 0.0%

Molecule: Ac-FRVDEEFQSPFASQSRGYFLFRPRN-NH2 [NMU2]
% Activity (Mouse NMUR1-CTG; [1]): 100%
EC50 (hNMUR2; human NMUR2): 2.6 nM
% Activity (hNMUR2; [2]): 97.4%

Molecule: Ac-FRVDEEFQSPFASQSRPYFLFRPRN-NH2 [NMU5]
% Activity (Mouse NMUR1-CTG; [1]): 100%
% Activity (hNMUR2; [2]): 98.1%

Molecule: GYFLFRPRN-NH2 [NMU3]
% Activity (Mouse NMUR1-CTG; [1]): 100%
% Activity (hNMUR2; [2]): 100%

Molecule: H-FRVDEEFQSPFASQSRPYFLFRPRN-NH2 [NMU4]
% Activity (Mouse NMUR1-CTG; [1]): 100%
EC50 (hNMUR2; human NMUR2): 2.6 nM
% Activity (hNMUR2; [2]): 100%

Next, values leading:

% Activity (Mouse NMUR1-CTG; [1]): 100%
% Activity (hNMUR2; [2]): 101%
Molecule: CCN1C(=O)CC(SC[C@H](NC(C)=O)C(=O)NCCCOCCOCCOCCCNC(=O)CCC(=O)N[C@@H](Cc2ccccc2)C(=O)N[C@@H](CC(C)C)C(=O)N[C@@H](Cc2ccccc2)C(=O)N[C@@H](CCCNC(=N)N)C(=O)N2CCC[C@H]2C(=O)N[C@@H](CCCNC(=N)N)C(=O)N[C@@H](CC(N)=O)C(N)=O)C1=O (stereo partly drawn) [NMU15, Ac-C1-Ttds-FLFRPRN-CONH2] ({X2-Suc}-FLFRPRN-NH2)

EC50 (Mouse NMUR1-CTG; mouse NMUR1-CTG): 2.9 nM
% Activity (Mouse NMUR1-CTG; [1]): 116.6%
EC50 (hNMUR2; human NMUR2): 1.5 nM
% Activity (hNMUR2; [2]): 99.8%
Molecule: CCN1C(=O)CC(SC[C@H](NC(C)=O)C(=O)N[C@@H](C)C(=O)N[C@@H](CO)C(=O)N[C@@H](CCC(N)=O)C(=O)N[C@@H](CO)C(=O)N[C@@H](CCCNC(=N)N)C(=O)NCC(=O)N[C@@H](Cc2ccc(O)cc2)C(=O)N[C@@H](Cc2ccccc2)C(=O)N[C@@H](CC(C)C)C(=O)N[C@@H](Cc2ccccc2)C(=O)N[C@@H](CCCNC(=N)N)C(=O)N2CCC[C@H]2C(=O)N[C@@H](CCCNC(=N)N)C(=O)N[C@@H](CC(N)=O)C(N)=O)C1=O (stereo partly drawn) [NMU17] (Ac-C(Succinimide(1-Et,3-yl))ASQSRGYFLFRPRN-NH2)

% Activity (Mouse NMUR1-CTG; [1]): 110.8%
% Activity (hNMUR2; [2]): 105%
Molecule: CCN1C(=O)CC(SC[C@H](NC(C)=O)C(=O)N[C@@H](Cc2ccccc2)C(=O)N[C@@H](CCC(N)=O)C(=O)N[C@@H](CO)C(=O)N2CCC[C@H]2C(=O)N[C@@H](Cc2ccccc2)C(=O)N[C@@H](C)C(=O)N[C@@H](CO)C(=O)N[C@@H](CCC(N)=O)C(=O)N[C@@H](CO)C(=O)N[C@@H](CCCNC(=N)N)C(=O)NCC(=O)N[C@@H](Cc2ccc(O)cc2)C(=O)N[C@@H](Cc2ccccc2)C(=O)N[C@@H](CC(C)C)C(=O)N[C@@H](Cc2ccccc2)C(=O)N[C@@H](CCCNC(=N)N)C(=O)N2CCC[C@H]2C(=O)N[C@@H](CCCNC(=N)N)C(=O)N[C@@H](CC(N)=O)C(N)=O)C1=O (stereo partly drawn) [NMU19] (Ac-C(Succinimide(1-Et,3-yl))FQSPFASQSRGYFLFRPRN-NH2)

% Activity (Mouse NMUR1-CTG; [1]): 100%
% Activity (hNMUR2; [2]): 105%
Molecule: CCN1C(=O)CC(SC[C@H](NC(C)=O)C(=O)N[C@@H](CSC2CC(=O)N(CC)C2=O)C(=O)N[C@@H](Cc2ccccc2)C(=O)N[C@@H](CCCNC(=N)N)C(=O)N[C@H](C(=O)N[C@@H](CC(=O)O)C(=O)N[C@@H](CCC(=O)O)C(=O)N[C@@H](CCC(=O)O)C(=O)N[C@@H](Cc2ccccc2)C(=O)N[C@@H](CCC(N)=O)C(=O)N[C@@H](CO)C(=O)N2CCC[C@H]2C(=O)N[C@@H](Cc2ccccc2)C(=O)N[C@@H](C)C(=O)N[C@@H](CO)C(=O)N[C@@H](CCC(N)=O)C(=O)N[C@@H](CO)C(=O)N[C@@H](CCCNC(=N)N)C(=O)NCC(=O)N[C@@H](Cc2ccc(O)cc2)C(=O)N[C@@H](Cc2ccccc2)C(=O)N[C@@H](CC(C)C)C(=O)N[C@@H](Cc2ccccc2)C(=O)N[C@@H](CCCNC(=N)N)C(=O)N2CCC[C@H]2C(=O)N[C@@H](CCCNC(=N)N)C(=O)N[C@@H](CC(N)=O)C(N)=O)C(C)C)C1=O (stereo partly drawn) [NMU22] (Ac-C(Succinimide(1-Et,3-yl))C(Succinimide(1-Et,3-yl))FRVDEEFQSPFASQSRGYFLFRPRN-NH2)

% Activity (Mouse NMUR1-CTG; [1]): 56.1%
% Activity (hNMUR2; [2]): 63.9%
Molecule: CCCCCCCCCCCCCCCC(=O)N[C@@H](CSC1CC(=O)N(CC)C1=O)C(=O)N[C@@H](Cc1ccccc1)C(=O)N[C@@H](CCCNC(=N)N)C(=O)N[C@H](C(=O)N[C@@H](CC(=O)O)C(=O)N[C@@H](CCC(=O)O)C(=O)N[C@@H](CCC(=O)O)C(=O)N[C@@H](Cc1ccccc1)C(=O)N[C@@H](CCC(N)=O)C(=O)N[C@@H](CO)C(=O)N1CCC[C@H]1C(=O)N[C@@H](Cc1ccccc1)C(=O)N[C@@H](C)C(=O)N[C@@H](CO)C(=O)N[C@@H](CCC(N)=O)C(=O)N[C@@H](CO)C(=O)N[C@@H](CCCNC(=N)N)C(=O)NCC(=O)N[C@@H](Cc1ccc(O)cc1)C(=O)N[C@@H](Cc1ccccc1)C(=O)N[C@@H](CC(C)C)C(=O)N[C@@H](Cc1ccccc1)C(=O)N[C@@H](CCCNC(=N)N)C(=O)N1CCC[C@H]1C(=O)N[C@@H](CCCNC(=N)N)C(=O)N[C@@H](CC(N)=O)C(N)=O)C(C)C (stereo partly drawn) [NMU24] (Palmitoyl-C(Succinimide(1-Et,3-yl))FRVDEEFQSPFASQSRGYFLFRPRN-NH2)

EC50 (Mouse NMUR1-CTG; mouse NMUR1-CTG): 480 nM
% Activity (Mouse NMUR1-CTG; [1]): 65.4%
EC50 (hNMUR2; human NMUR2): 13 nM
Molecule: Ac-C2FQSPFASQSRGYFLFRPRN-CONH2 ({Ac-C(PEG 40 kDa)}-FQSPFASQSRGYFLFRPRN-NH2; not fully specified; printed as Ac-C2FQSPFASQSRGYFLFRPRN-CONH2) [NMU20, C2 = Cys(PEG)240 kDa]

EC50 (Mouse NMUR1-CTG; mouse NMUR1-CTG): 56.3 nM
% Activity (Mouse NMUR1-CTG; [1]): 90.8%
EC50 (hNMUR2; human NMUR2): 24.2 nM
% Activity (hNMUR2; [2]): 97.9%
Molecule: Ac-C4FRVDEEFQSPFASQSRGYFLFRPRN-CONH2 ({Ac-C(PEG 20 kDa)}-FRVDEEFQSPFASQSRGYFLFRPRN-NH2) [NMU21, C4 = Cys(PEG)20 kDa]

EC50 (Mouse NMUR1-CTG; mouse NMUR1-CTG): 60.3 nM
EC50 (hNMUR2; human NMUR2): 44.1 nM
% Activity (hNMUR2; [2]): 98.8%
Molecule: Pam-C2FRVDEEFQSPFASQSRGYFLFRPRN-CONH2 ({Palmitoyl-C(PEG 40 kDa)}-FRVDEEFQSPFASQSRGYFLFRPRN-NH2) [NMU25, Pam = palmitoyl; C2 = Cys(PEG)240 kDa]
